The text below walks through data of US10456397B2, “Covalent inhibitors of CDK-7” (Newave Pharmaceutical Inc., priority 2015, dated 2019).

The subject of one assay is NCI-H82. As to the kind of experiment: In vitro anti-proliferation assay (ATPlite). It counts as cell-based. To be noted: SCLC cell line NCI-H82, about 72 hours, read-out: anti-proliferative IC50. The protocol:
(§1) Cell antiproliferation is assayed by PerkinElmer ATPlite™ Luminescence Assay System. Briefly, the various test cancer cell lines are plated at a density of about 1×10^4 cells per well in Costar 96-well plates, and are incubated with different concentrations of compounds for about 72 hours in medium supplemented with 5% FBS. One lyophilized substrate solution vial is then reconstituted by adding 5 mL of substrate buffer solution, and is agitated gently until the solution is homogeneous. About 50 μL of mammalian cell lysis solution is added to 100 μL of cell suspension per well of a microplate, and the plate is shaken for about five minutes in an orbital shaker at ˜700 rpm. This procedure is used to lyse the cells and to stabilize the ATP. Next, 50 μL substrate solution is added to the wells and microplate is shaken for five minutes in an orbital shaker at ˜700 rpm. Finally, the luminescence is measured by a PerkinElmer TopCount® Microplate Scintillation Counter.
(§2) As shown in the following table, the CY-16-1 has potent anticancer activity in small cell lung cancer (SCLC) cell lines. Cisplatin, the first line treatment of SCLC, was used as a reference drug in this assay: […]
In general terms: Cellular ATP, detected with luciferase, serves as a proxy for viable cell number.

A further assay concerns NCI-H69. As to the kind of experiment: In vitro anti-proliferation assay (ATPlite). It counts as cell-based. The settings on record: SCLC cell line NCI-H69, about 72 hours, read-out: anti-proliferative IC50. As for the experimental part:
as §1, §2

The test system of the next assay is NCI-H209. Put plainly: In vitro anti-proliferation assay (ATPlite). The settings on record: SCLC cell line NCI-H209, about 72 hours, read-out: anti-proliferative IC50. It counts as cell-based. As for the experimental part: as §1, §2
In a further assay the test system is NCI-H446. As to the kind of experiment: In vitro anti-proliferation assay (ATPlite). It counts as cell-based. To be noted: SCLC cell line NCI-H446, about 72 hours, read-out: anti-proliferative IC50. As for the experimental part:
as §1, §2

The next assay deals with DMS 114. Put plainly: In vitro anti-proliferation assay (ATPlite). It counts as cell-based. The settings on record: SCLC cell line DMS 114, about 72 hours, read-out: anti-proliferative IC50. As for the experimental part: as §1, §2
Another assay deals with CDK7/cyclinH1/MNAT1 (Homo sapiens, UniProt P50613). Put plainly: Inhibition of CDK-7 enzymatic activity (p33 ATP radiometric assay).
A further assay deals with CDK7/CycH/MAT1 (Homo sapiens, UniProt P50613). Put plainly: In vitro irreversible dialysis assay. It counts as biochemical. To be noted: 700 nM compound pre-incubated 2 h with 50 nM enzyme, dialyzed 24 h at RT. As for the experimental part:
700 nM CY-16-1 compound was pre-incubated with 50 nM CDK7/CycH/MAT1 enzyme for 2 h in a buffer comprising: 100 mM HEPES pH7.5, 0.1% BSA, 5 mM MgCl2, 1 mM DTT, 0.01% Triton X-100 and dialyzed at RT against the same buffer for a total time of 24 h (3 changes of the dialysis buffer, nominal cumulative dialysis factor: 30,000). Control samples included: DMSO+50 nM CDK7 dialyzed in the identical manner Un-dialyzed samples with compound were assembled and incubated for 24 h at RT. Following dialysis, the CDK7 activity was measured in real-time format in the presence of 100 uM ATP and 1 uM substrate peptide. Initial velocity was determined in the samples.

For a further assay, the target named is T1, CDK7 (Homo sapiens, UniProt P50613).
T1 construct: made in house; host or cells: E. coli BL21-derived host (T7 phage) or HEK-293
As to the kind of experiment: KINOMEscan CDK7 binding constant (Kd) determination. To be noted: KINOMEscan competition binding, 11-point 3-fold dilution.

Values joined by “and” are separate entries in the source; they are usually repeats but may differ in a detail not shown here. Equal values may be shown once. Read-outs that look alike come from different tables or passages of the source.

Sequence of CDK7/CycH/MAT1 (P50613 whole entry): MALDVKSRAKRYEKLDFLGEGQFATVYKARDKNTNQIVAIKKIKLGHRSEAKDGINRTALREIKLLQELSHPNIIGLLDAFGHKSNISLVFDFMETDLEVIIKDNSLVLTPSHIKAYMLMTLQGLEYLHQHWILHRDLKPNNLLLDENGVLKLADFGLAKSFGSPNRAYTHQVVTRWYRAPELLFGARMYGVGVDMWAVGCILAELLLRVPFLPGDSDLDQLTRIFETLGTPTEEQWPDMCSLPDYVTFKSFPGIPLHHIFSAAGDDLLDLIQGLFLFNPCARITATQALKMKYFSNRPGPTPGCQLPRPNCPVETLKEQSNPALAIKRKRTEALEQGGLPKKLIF
Sequence of CDK7/CycH/MAT1 (P51946 whole entry partner): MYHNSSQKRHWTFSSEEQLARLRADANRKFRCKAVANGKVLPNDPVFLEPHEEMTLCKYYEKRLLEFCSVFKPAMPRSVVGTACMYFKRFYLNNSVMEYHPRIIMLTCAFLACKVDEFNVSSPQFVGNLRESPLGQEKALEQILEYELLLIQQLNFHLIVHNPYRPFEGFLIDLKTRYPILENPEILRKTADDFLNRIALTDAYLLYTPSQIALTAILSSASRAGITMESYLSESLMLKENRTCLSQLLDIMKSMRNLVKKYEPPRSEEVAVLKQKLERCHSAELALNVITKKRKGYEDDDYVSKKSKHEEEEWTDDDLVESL
Sequence of CDK7/CycH/MAT1 (P51948 whole entry partner): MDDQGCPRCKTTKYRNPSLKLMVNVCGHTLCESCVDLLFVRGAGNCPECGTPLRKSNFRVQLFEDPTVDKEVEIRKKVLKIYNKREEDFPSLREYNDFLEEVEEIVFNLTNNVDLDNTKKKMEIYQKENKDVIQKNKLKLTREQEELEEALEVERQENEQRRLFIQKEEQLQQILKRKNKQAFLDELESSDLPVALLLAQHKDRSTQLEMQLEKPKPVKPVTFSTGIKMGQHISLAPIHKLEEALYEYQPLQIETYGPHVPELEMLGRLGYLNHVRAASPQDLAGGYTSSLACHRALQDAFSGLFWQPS
Sequence of CDK7/cyclinH1/MNAT1 (P50613 whole entry): as the sequence (P50613 whole entry) above
Sequence of CDK7/cyclinH1/MNAT1 (P51946 whole entry partner): as the sequence (P51946 whole entry partner) above
Sequence of CDK7/cyclinH1/MNAT1 (P51948 whole entry partner): as the sequence (P51948 whole entry partner) above
T1 sequence (P50613 whole entry): as the sequence (P50613 whole entry) above
Procedure for CDK7/cyclinH1/MNAT1: Material: CDK7/cyclinH1/MNAT1 (Accession number for CDK7; NP 001790, for cyclinH1; NP 001230, for MNAT1; NP 002422.1) Recombinant Human Full-Length protein, Histidine-tagged CDK7 (MW=43.2 kDa), Histidine-tagged cyclin H1 (MW=42.6 kDa), Histidine-tagged MNAT1 (MW=40.5 kDa), were expressed in insect cells. […] Activity was determined with a final protein concentration at 3.33 μg/mL. Enzyme was stored at a concentration of 0.42 mg/ml in 50 rnM Tris (pH 7.5), 150 mM NaCl, 0.5 mM EDTA, 0.02% Triton X-100, 2 mM DTT, 50% Glycerol.
For CDK7 activity assay, p33 ATP tracers were incubated with purified recombinant specific combination of purified CDK kinases, cyclins and substrates to monitor the enzyme activity. In these assays, individual reactions were carried out in specific conditions describe below with reaction buffer: 20 mM HEPES (pH 7.5), 10 mM MgCl2, 1 mM EGTA, 0.02% Brij 35, 0.02 mg/ml BSA, 0.1 mM Na3VO4, 2 mM DTT. An equal volume of 25% TCA was added to stop the reaction and precipitate the labeled peptides. […] The amount of incorporated isotope was measured using a Perkin Elmer TopCount plate reader. […] IC50 was calculated using Prism software with sigmoidal dose-response curve fitting. […] Reaction was incubated for 2 hours at room temperature and conversion rate of ATP was measured to be 5.5%. […]

As usually defined, the IC50 is the concentration at which inhibition is half-maximal. With `N.N.[Cl][Pt][Cl]` [Cisplatin, reference compound], the IC50 with NCI-H82 was 4510 nM; in the assay on NCI-H69 it was 7000 nM and 7700 nM; in the assay with NCI-H209, 274 nM; in the assay on NCI-H446, 7450 nM; with DMS 114, 5950 nM.
By Kd is commonly meant the constant that tells how readily two partners part at equilibrium. Turning to `C=CC(=O)Nc1ccc(C(=O)Nc2cc3cc(c2)Nc2nccc(n2)-c2cccc(c2)OCC/C=C/CN(C)C3)cc1` [CY-16-1], the IC50 on CDK7/cyclinH1/MNAT1 is under 15 nM; in the assay with NCI-H82 (Homo sapiens) it was 28 nM; in the assay on NCI-H69 (Homo sapiens, NCI-H69, 72 h) it was 32 nM; in the assay with NCI-H69, 18 nM; in the assay on NCI-H209 (Homo sapiens), 30 nM; in the assay on NCI-H446 (Homo sapiens), 19 nM. In the assay on DMS 114 (Homo sapiens), the IC50 amounted to 29 nM. Moreover, the “Reversibility of CDK7 inhibition after dialysis” value at CDK7/CycH/MAT1 is “irreversible inhibitor of CDK7”. Moreover, the equilibrium dissociation constant (Kd) on CDK7 was under 1 nM.
